In patent US7101872B2, “Farnesyl dibenzodiazepinone, and processes for its production” (Ecopia BioSciences, Inc., priority 2003, dated 2006):

Assays:
[1] = tested on: GL26; experiment: Antiproliferative study, glioma cell lines (MTT); type: cell-based, Human; settings: Mus musculus, GL26, Glioblastoma, 96 hrs
Experimental: Cells were passaged once a week. Prior to use the cells were detached from the culture flask by treating with trypsin for five to ten minutes. The cells were counted with a Neubauer glass slide and viability assessed by 0.25% trypan blue exclusion. Only flasks with >95% cell viability, were used in the study. Cell lines amplification and plating: Cells, 5×10^3 cells per well in 100 μL drug-free medium supplemented with 10% serum, were plated in 96-well flat bottom microtiter plates and incubated at 37° C. for 48 hrs before treatment. Evaluation of inhibitory activity on cell proliferation: Cells (in triplicate wells) were incubated 96 hrs with medium containing different concentrations of ECO-04601, starting at 5.0 μg/ml (10 μM). The compound was used in a solution of 1% DMSO in D-MEM or RPMI media (or other equivalent media). […] The optical density was measured before incubation (time 0) and following 96 hrs of incubation with test compound in order to measure the growth rate of each cell line.
At the end of the cell treatment, cell culture media was replaced with 150 μl of fresh medium containing 10 mM of 4-(2-hydroxyethyl)-1-piperazineethanesulfonic acid buffer, pH 7.4. […] The optical density was read in each well using a single wavelength spectrophotometer plate reader at 570 nm. […]

[2] = tested on: C6; experiment: Antiproliferative study, glioma cell lines (MTT); type: cell-based; settings: Rattus norvegicus, C6, Glioblastoma, 96 hrs
Experimental: (§1) Cells were passaged once a week. Prior to use the cells were detached from the culture flask by treating with trypsin for five to ten minutes. The cells were counted with a Neubauer glass slide and viability assessed by 0.25% trypan blue exclusion. Only flasks with >95% cell viability, were used in the study. Cell lines amplification and plating: Cells, 5×10^3 cells per well in 100 μL drug-free medium supplemented with 10% serum, were plated in 96-well flat bottom microtiter plates and incubated at 37° C. for 48 hrs before treatment. Evaluation of inhibitory activity on cell proliferation: Cells (in triplicate wells) were incubated 96 hrs with medium containing different concentrations of ECO-04601, starting at 5.0 μg/ml (10 μM). The compound was used in a solution of 1% DMSO in D-MEM or RPMI media (or other equivalent media). The concentrations of ECO-04601 were as follows: 10 μM (5.0 μg/ml), 1 μM (0.50 μg/ml), 0.5 μM (0.25 μg/ml), 0.1 μM (0.050 μg/ml), […] (0.025 μg/ml), 0.01 μM (0.0050 μg/ml), 0.001 μM (0.00050 μg/ml). Negative controls were cells treated with vehicle alone (1% DMSO in culture medium). Positive controls were cells treated with 4 to 6 increasing concentrations of cisplatin (CDDP) (data not shown). The optical density was measured before incubation (time 0) and following 96 hrs of incubation with test compound in order to measure the growth rate of each cell line.
(§2) At the end of the cell treatment, cell culture media was replaced with 150 μl of fresh medium containing 10 mM of 4-(2-hydroxyethyl)-1-piperazineethanesulfonic acid buffer, pH 7.4. Then 50 μl of 2.5 mg/ml of 3-(4,5-dimethylthiazo-2-yl)-2,5-diphenyltetrazolium bromide in PBS pH 7.4, were added to each well and the culture plates incubated for 4 hrs at 37° C. The resulting supernatant was removed and formazan crystals were dissolved with 200 μl of DMSO followed by 25 μl of glycine buffer (0.1 M glycine plus 0.1 M NaCl, pH 10.5). The optical density was read in each well using a single wavelength spectrophotometer plate reader at 570 nm. […] Each of the cell lines was tested in at least 3 independent experiments.

[3] = tested on: DN; experiment: Antiproliferative study, glioma cell lines (MTT); type: cell-based; settings: Homo sapiens, Oligodendroglioma, 96 hrs
Experimental: as §1, §2

[4] = tested on: GHA; experiment: Antiproliferative study, glioma cell lines (MTT); type: cell-based; settings: Homo sapiens, Oligodendroglioma, 96 hrs
Experimental: as §1, §2

[5] = tested on: GHD; experiment: Antiproliferative study, glioma cell lines (MTT); type: cell-based; settings: Homo sapiens, Astrocytoma, 96 hrs
Experimental: as §1, §2

[6] = tested on: U 373; experiment: Antiproliferative study, glioma cell lines (MTT); type: cell-based; settings: Homo sapiens, U373 MG, U 373, Astrocytoma, 96 hrs
Experimental: as §1, §2

[7] = tested on: C6 glioblastoma cell-bearing mice; experiment: In vivo glioma model, treatment from day 10 after inoculation; set-up: species or system Mus musculus nude mice; settings: 20–30 mg/kg; versus vehicle-treated mice (FIG. 11)
Experimental: The aim of this study was to test whether ECO-04601 administered by i.p. route prevents or delays tumor growth in C6 glioblastoma cell-bearing mice, and to determine an effective dosage regimen.
Animal experiments were performed according to ethical guidelines of animal experimentation (Charte du comité d'éthique du CNRS, juillet 2003) and the English guidelines for the welfare of animals in experimental neoplasia (WORKMAN, P., […], P., BALKWILL, F., et al. (1998). United Kingdom Coordinating Committee on Cancer Research (UKCCCR) Guidelines for the welfare of animals in experimental neoplasia (Second Edition, July 1997; British Journal of Cancer 77:1–10). Any dead or apparently sick mice were promptly removed and replaced with healthy mice. Sick mice were euthanized upon removal from the cage. Animals were maintained in rooms under controlled conditions of temperature (23±2° C.), humidity (45±5%), photoperiodicity (12 hrs light/12 hrs dark) and air exchange. […] The cells were counted in a hemocytometer and their viability assessed by 0.25% trypan blue exclusion. […]
In a second series of experiments, treatment started at day 10 following inoculation of C6 cells when tumors became palpable (around 100 to 200 mm^3). […] Tumor volume was measured every second day until the end of the treatment using callipers. […]

IC50 [1]: 8.93 ± 1.1 µM | IC50 [2]: 4.28 ± 2.82 µM | IC50 [3]: 3.26 ± 0.93 µM | IC50 [4]: 1.78 ± 0.84 µM | IC50 [5]: 6.29 ± 2.98 µM | IC50 [6]: 3.83 ± 1.37 µM
Compound: CC(C)=CCC/C(C)=C/CC/C(C)=C/CN1C(=O)c2cccc(O)c2Nc2c(O)cc(O)cc21 [ECO-04601, 10-farnesyl-4,6,8-trihydroxy-dibenzodiazepin-11-one]
Histological analysis of tumor sections [7]: cell density was decreased and the nuclei of remaining tumor cells appeared larger and pycnotic
